Reference: patent US11191855B2, “1,7-diaryl-1,6-heptadiene-3,5-dione derivatives, methods for the production and use thereof” (UNIVERSITÄTSKLINIKUM REGENSBURG, priority 2015, dated 2021)
Counter-ions that a name gives are not always drawn. Like-named read-outs stand apart in the source and are kept apart here. Marks after values point to notes of the source that are not given here.

Experiments:
S. aureus ATCC 25923 = experiment: Phototoxicity test c.2) (BlueV light source, emission maximum approx. 420 nm, CFU count); type: cell-based, Staphylococcus aureus; details: for log reduction at 10 µM / log reduction at 50 µM: Staphylococcus aureus, ATCC25923, light or radiation study, 5 min; for log reduction at 10 µM: read-out: Effectiveness against S. aureus: Reduction in CFU in log10 at concentration of 10 μM; for log reduction at 50 µM: read-out: Effectiveness against S. aureus: Reduction in CFU in log10 at concentration of 50 μM
Method: A sample of the bacterial cell Staphylococcus. aureus (ATCC number: 25923) or Escherichia. coli (ATCC number: 25922) was removed from a cryo-freeze culture and cultured under aerobic conditions at 37° C. and 175 rpm overnight in an orbital shaker (MAXQ4000, Thermo Scientific, Dubuque, Iowa, USA). Growth was carried out in 20 mL Todd-Hewitt broth (Carl Roth, Karlsruhe, Germany) supplemented with 0.3% of yeast extract (AppliChem, Darmstadt, Germany). In a second experiment, the photosensitizers (PS) used were dissolved in Millipore water and adjusted to various concentrations. 25 μL of a bacterial suspension grown overnight ( 108/mL) was incubated with 25 μL of photosensitizer solution of the various concentrations at room temperature for 10 seconds in darkness in a 96-well plate. Next, the suspension was irradiated for 5-20 minutes. For the irradiation, the light source BlueV from […], Germany) was used, which emits light from 380 to 480 nm (emission maximum at approximately 420 nm). The applied energy density was 17.5 mW/cm^2. Each experiment was accompanied by three controls in order to exclude side effect of the irradiation/photosensitizer (PS) on the survival of the bacteria: (i) no PS, only light (=light control), (ii) no light, only PS (=dark control) and (iii) neither light nor PS (=reference control). […] All of the tests were carried out four times. […] All of the remaining PS were tested against S. aureus ATCC 25923 (FIGS. 24-33). FIGS. 21-33 show the logarithmic reduction after illumination with respect to the reference control. […] The irradiation period was 5 minutes (emission maximum at approximately 420 nm) for an applied intensity of 17.5 mW/cm^2, i.e. an applied light energy (dosage) of 5.3 J/cm^2. The average reference control (arithmetic mean with standard deviation) (no light, no PS) was 3.9×10^8/mL. The logarithmic reduction after illumination is shown with respect to the reference control.

E. coli ATCC 25922 = experiment: Phototoxicity test c.1) (LED array 430-435 nm, CFU count by Miles and Misra); type: cell-based, Escherichia coli; details: light dose 33.8 J/cm^2, approx. 435 nm, 60 min at 9.4 mW/cm^2, vs reference control; for log reduction at 10 µM / log reduction at 50 µM: Escherichia coli, ATCC25922, light or radiation study; for log reduction at 10 µM: read-out: Effectiveness against E. Coli: Reduction in CFU in log10 at concentration of 10 μM; for log reduction at 50 µM: read-out: Effectiveness against E. Coli: Reduction in CFU in log10 at concentration of 50 μM
Method: A sample of the bacterial cell Staphylococcus. aureus (ATCC number: 25923) or Escherichia. coli (ATCC number: 25922) was removed from a cryo-freeze culture and cultured under aerobic conditions at 37° C. and 175 rpm overnight in an orbital shaker (MAXQ4000, Thermo Scientific, Dubuque, Iowa, USA). Growth was carried out in 20 mL Todd-Hewitt broth (Carl Roth, Karlsruhe, Germany) supplemented with 0.3% of yeast extract (AppliChem, Darmstadt, Germany).
Subsequently, dilutions (0, 5, 10, […] and 20% v/v of the overnight culture) and their absorptions were measured at 600 nm in triplicate for 100 μL (Infinite 200 M Pro, Tecan, Mannedorf, Switzerland). A calibration graph (Microsoft Excel) was used to calculate the volume which was required to produce 20 mL of a culture with an absorption of 0.05 at 600 nm. The volume calculated for the overnight culture was topped up with Todd-Hewitt broth (composition as above) to 20 mL and incubated for two hours at 37° C. with constant movement (175 rpm, MAXQ4000). The cultures were then in the exponential growth phase; the absorption at 600 nm was between 0.3 and 0.45.
A 2-hour culture was divided into 1800 μL aliquots. After centrifuging at 20° C., 830 rcf, 5 min (5417R centrifuge, Eppendorf, Hamburg, Germany), the pellets were re-suspended in phosphate buffer (Dulbeccos' Modified Phosphate Saline, DPBS, Sigma-Aldrich) with either 10 or 50 μM of the corresponding photosensitizer, wherein the final volume was kept at 1800 μL.
The solutions obtained were immediately incubated on the orbital shaker (see above for parameters) for 5 or 25 minutes.
Three controls were run at the same time for each photosensitizer. The “light only” control contained DPBS without photosensitizer. The “photosensitizer only” (“PS only”) control was incubated like the PDI samples, but not irradiated and kept strictly in darkness. A further control (double negative, “Co−/−”), received neither light nor photosensitizer.
After the incubation, duplicates of the samples (500 μL each) were transferred into a 24-well microtitre plate (Cellstar, Greiner Bio-One, Frickenhausen, Germany). The “PS only” and “Co −/−” samples were placed in their own microtitre plate which was packed in aluminium foil so as to be lightproof.
The irradiation was carried out under constant shaking (MTS4, IKA, Staufen, Germany, 175 rpm) from below on a LED array with maximum homogeneity of the lighting surface. All of the controls were shaken in the same manner. The technical data for the light source are shown in Table 2; the total dose of light applied was 33.8 J/cm^2.
The determination of the colony forming units (CFU) was carried out in accordance with the method published by Miles and Misra (Miles, A A; Misra, S S, Irwin, J O (1938 Nov.). “The estimation of the bactericidal power of the blood” The Journal of hygiene 38 (6): 732-49). In this regard, serial dilutions (1:10) of the corresponding bacterial suspension were produced in DPBS. 5×10 μL of each bacterial dilution was then dripped onto Todd-Hewitt plates (with broth, additional 1.5% agar (Agar-Agar, Kobe I, Roth, Karlsruhe, Germany) and incubated at 37° C. for 24 h. Next, the number of surviving colony forming units was determined. All of the tests were carried out four times.
The photosensitizers were tested against the bacterial strain E. coli ATCC 25922. FIGS. 1-20 show the measured surviving colony forming units (CFU).
The average reference control (arithmetic mean with standard deviation) (no light, no PS) was 3.6×10^8/mL. The logarithmic reduction after illumination is shown with respect to the reference control. The respective upper value, indicated by a *, refers to an incubation period of 5 min and the respectively lower value, indicated by a #, refers to an incubation period of 25 min.

[1] = 10 μM, irradiation 5 minutes, approx. 420 nm, 17.5 mW/cm^2, 5.3 J/cm^2, vs reference control
[2] = 50 μM, irradiation 5 minutes, approx. 420 nm, 17.5 mW/cm^2, 5.3 J/cm^2, vs reference control
[3] = irradiation 5 minutes, approx. 420 nm, 17.5 mW/cm^2, 5.3 J/cm^2, vs reference control
[4] = 5 min, incubation period 5 min (upper value, *)
[5] = 25 min, incubation period 25 min (lower value)
[6] = incubation period 5 min (upper value, *)
[7] = incubation period 25 min (lower value)

COc1cc(/C=C/C(=O)C(C)C(=O)/C=C/c2ccc(OCCN)c(OC)c2)ccc1OCCN [Curcumin 09a hydrochloride]
log reduction at 10 µM (S. aureus ATCC 25923; [1]): > 2
log reduction at 50 µM (S. aureus ATCC 25923; [2]): > 5

COc1ccc(/C=C/C(=O)C(CCN)C(=O)/C=C/c2ccc(OC)c(OC)c2)cc1OC.Cl [Curcumin 11a hydrochloride]
Effectiveness against S. aureus: Reduction in CFU in log10 at concentration of 100 μM (S. aureus ATCC 25923; [3]): >2 log10
Effectiveness against S. aureus: Reduction in CFU in log10 at concentration of 250 μM (S. aureus ATCC 25923; [3]): >5 log10
log reduction at 50 µM (S. aureus ATCC 25923; [2]): > 1

Cl.Cl.NCCOc1ccc2cc(/C=C/C(=O)CC(=O)/C=C/c3ccc4cc(OCCN)ccc4c3)ccc2c1 [Curcumin 12b hydrochloride]
Effectiveness against S. aureus: Reduction in CFU in log10 at concentration of 100 μM (S. aureus ATCC 25923; [3]): ~2 log10
Effectiveness against S. aureus: Reduction in CFU in log10 at concentration of 250 μM (S. aureus ATCC 25923; [3]): >3 log10
log reduction at 50 µM (S. aureus ATCC 25923; [2]): > 1

COc1ccc(/C=C/C(=O)C(CCN)C(=O)/C=C/c2ccc(OC)c(OCCN)c2)cc1OCCN [Curcumin 13a hydrochloride]
log reduction at 10 µM (S. aureus ATCC 25923; [1]): > 1
log reduction at 50 µM (S. aureus ATCC 25923; [2]): > 5

COc1ccc(/C=C/C(=O)CC(=O)/C=C/c2ccc(OCCN)c(OCCN)c2)cc1OCCN [Curcumin 13b hydrochloride]
log reduction at 10 µM (E. coli ATCC 25922; [4]): > 7
log reduction at 50 µM (E. coli ATCC 25922; [4]): > 7
log reduction at 10 µM (E. coli ATCC 25922; [5]): > 7
log reduction at 50 µM (E. coli ATCC 25922; [5]): > 7

COc1cc(/C=C/C(=O)C(C)C(=O)/C=C/c2ccc(OCCN)c(OCCN)c2)ccc1OCCN (centres unmarked) [Curcumin 13c hydrochloride]
log reduction at 10 µM (S. aureus ATCC 25923; [1]): > 1
log reduction at 50 µM (S. aureus ATCC 25923; [2]): > 5

COc1cc(/C=C(\C)C(=O)CC(=O)/C(C)=C/c2ccc(OCCN)c(OC)c2)ccc1OCCN.Cl.Cl [Curcumin 14a hydrochloride]
Effectiveness against S. aureus: Reduction in CFU in log10 at concentration of 100 μM (S. aureus ATCC 25923; [3]): >2 log10
Effectiveness against S. aureus: Reduction in CFU in log10 at concentration of 250 μM (S. aureus ATCC 25923; [3]): >3 log10
log reduction at 50 µM (S. aureus ATCC 25923; [2]): > 1

COc1cc(/C(C)=C(\C)C(=O)CC(=O)/C(C)=C(\C)c2ccc(OCCN)c(OC)c2)ccc1OCCN [Curcumin 14b hydrochloride]
log reduction at 50 µM (E. coli ATCC 25922; [5]): > 1

COc1cc(/C=C/C(=O)CC(=O)/C=C/c2ccc(OCCC[P+](C)(C)C)c(OC)c2)ccc1OCCC[P+](C)(C)C [Curcumin 15a hydrochloride, 3,3′-(4,4′-((1E,6E)-3,5-dioxohepta-1,6-diene-1,7-diyl)bis(2-methoxy-4,1-phenylene))bis(oxy)bis(trimethylpropan-1-phosphonium) chloride]
log reduction at 10 µM (S. aureus ATCC 25923; [1]): ~1
log reduction at 50 µM (S. aureus ATCC 25923; [2]): > 5

COc1cc(/C=C/C(=O)CC(=O)/C=C/c2ccc(OCCC[P+](c3ccccc3)(c3ccccc3)c3ccccc3)c(OC)c2)ccc1OCCC[P+](c1ccccc1)(c1ccccc1)c1ccccc1 [Curcumin 15b hydrochloride, 3,3′-(4,4′-((1E,6E)-3,5-dioxohepta-1,6-diene-1,7-diyl)bis(2-methoxy-4,1-phenylene))bis(oxy)bis(triphenylpropan-1-phosphonium) chloride]
log reduction at 10 µM (S. aureus ATCC 25923): > 4
log reduction at 50 µM (S. aureus ATCC 25923): > 5

(1E,6E)-1,7- bis(4-(2- aminoethoxy)-3- methoxy- phenyl)hepta-1,6- diene-3,5-dione hydrochloride- zinc complex [Curcumin 01a zinc complex]
Effectiveness against E. Coli: Reduction in CFU in log10 at concentration of 10 μM (E. coli ATCC 25922; [6]): >3* log10
Effectiveness against E. Coli: Reduction in CFU in log10 at concentration of 10 μM (E. coli ATCC 25922; [7]): >2 log10
Effectiveness against E. Coli: Reduction in CFU in log10 at concentration of 50 μM (E. coli ATCC 25922; [6]): >5* log10
Effectiveness against E. Coli: Reduction in CFU in log10 at concentration of 50 μM (E. coli ATCC 25922; [7]): >5 log10

Bis[(1E,6E)-1,7- bis(4-(2- aminoethoxy)-3- methoxy- phenyl)hepta-1,6- diene-3,5-dione hydrochloride] boron complex [Roseo-curcumin 01a hydrochloride]
Effectiveness against E. Coli: Reduction in CFU in log10 at concentration of 10 μM (E. coli ATCC 25922; [6]): >5* log10
Effectiveness against E. Coli: Reduction in CFU in log10 at concentration of 10 μM (E. coli ATCC 25922; [7]): >5 log10
Effectiveness against E. Coli: Reduction in CFU in log10 at concentration of 50 μM (E. coli ATCC 25922; [6]): >7* log10
Effectiveness against E. Coli: Reduction in CFU in log10 at concentration of 50 μM (E. coli ATCC 25922; [7]): >6 log10
